In ChEMBL document CHEMBL1131909, “Synthesis and biological activities of position one and three transposed analogs of the opioid peptide YKFA” (Bioorg Med Chem Lett, 1999):

Columns and labels:
Mu-type opioid receptor [1] = molecular target: T1, Mu-type opioid receptor (Cavia porcellus, UniProt P97266); assay: Compound was tested for moderate potency against mu opioid receptor in guinea pig ileum; type: tissue-based
[2] = molecular target: Delta-type opioid receptor (Mus musculus, UniProt P32300); assay: In vitro delta opioid activity was determined by its ability to inhibit the electrically induced contractions of smooth muscle preparations in mouse vas deferens (MVD); type: functional, tissue-based
Mu-type opioid receptor [3] = molecular target: T1, Mu-type opioid receptor; assay: In vitro mu opioid activity was determined by its ability to inhibit the electrically induced contractions of smooth muscle preparations in guinea pig ileum (GPI); type: functional, tissue-based
Mu-type opioid receptor [4] = molecular target: Mu-type opioid receptor (Homo sapiens, UniProt P35372); assay: Compound was tested for binding affinity against mu opioid receptor binding assay
Mu-type opioid receptor [5] = molecular target: T1, Mu-type opioid receptor; assay: Compound was tested for its ability to activate mu opioid receptor in GPI bioassay

T1 sequence (P97266 whole entry): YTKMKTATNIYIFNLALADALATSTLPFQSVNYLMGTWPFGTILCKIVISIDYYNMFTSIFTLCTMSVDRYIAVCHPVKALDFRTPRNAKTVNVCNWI
Sequence of Delta-type opioid receptor (P32300 whole entry): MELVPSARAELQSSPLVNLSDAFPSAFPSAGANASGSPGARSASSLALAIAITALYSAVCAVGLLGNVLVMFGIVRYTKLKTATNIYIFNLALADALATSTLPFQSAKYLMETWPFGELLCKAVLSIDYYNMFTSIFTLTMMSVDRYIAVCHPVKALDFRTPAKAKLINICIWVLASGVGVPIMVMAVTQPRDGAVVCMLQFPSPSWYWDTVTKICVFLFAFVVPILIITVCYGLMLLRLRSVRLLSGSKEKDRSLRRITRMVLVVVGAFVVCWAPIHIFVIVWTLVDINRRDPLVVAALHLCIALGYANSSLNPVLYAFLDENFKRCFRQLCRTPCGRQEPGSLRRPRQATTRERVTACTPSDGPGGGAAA
Sequence of Mu-type opioid receptor (Homo sapiens, UniProt P35372) (P35372 whole entry): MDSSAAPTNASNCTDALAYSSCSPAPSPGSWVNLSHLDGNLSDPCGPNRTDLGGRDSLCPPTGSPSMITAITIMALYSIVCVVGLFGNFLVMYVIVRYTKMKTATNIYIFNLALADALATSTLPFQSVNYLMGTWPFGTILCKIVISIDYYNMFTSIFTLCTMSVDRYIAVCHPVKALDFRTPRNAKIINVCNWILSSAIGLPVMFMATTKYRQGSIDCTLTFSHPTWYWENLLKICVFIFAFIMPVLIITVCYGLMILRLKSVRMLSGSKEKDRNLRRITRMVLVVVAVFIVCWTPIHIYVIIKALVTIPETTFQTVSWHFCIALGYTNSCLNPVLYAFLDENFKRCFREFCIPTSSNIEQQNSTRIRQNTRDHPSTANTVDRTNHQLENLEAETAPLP

| Structure (SMILES) | IC50 [2] | IC50 (Mu-type opioid receptor [3]) | other results |
| --- | --- | --- | --- |
| NC(=O)[C@H]1CSSC[C@@H](NC(=O)[C@@H](N)Cc2ccccc2)C(=O)NCC(=O)N[C@@H](Cc2ccc([N+](=O)[O-])cc2)C(=O)N1 |  |  | IC50 (Mu-type opioid receptor [1]): 13 nM |
| N[C@@H](Cc1ccccc1)C(=O)N[C@@H]1CCCCNC(=O)[C@H](Cc2cc3ccccc3[nH]2)NC(=O)[C@H](Cc2ccc(O)cc2)NC1=O | 228 nM | 17.7 nM |  |
| N[C@H](Cc1ccccc1)C(=O)N[C@@H]1CCCCNC(=O)[C@H](Cc2cc3ccccc3[nH]2)NC(=O)[C@H](Cc2ccc(O)cc2)NC1=O | 8130 nM | 627 nM |  |
| CC1(C)SSC[C@@H](NC(=O)[C@@H](N)Cc2ccccc2)C(=O)N[C@@H](Cc2ccccc2)C(=O)N[C@H]1C(N)=O |  |  | Ki (Mu-type opioid receptor [4]): 13.6 nM; IC50 (Mu-type opioid receptor [5]): 9.1 nM |
| CC1(C)SSC[C@@H](NC(=O)[C@@H](N)Cc2ccc(O)cc2)C(=O)N[C@@H](Cc2ccccc2)C(=O)N[C@H]1C(N)=O |  |  | Ki (Mu-type opioid receptor [4]): 0.29 nM |
| NC(=O)[C@H]1CSSC[C@@H](NC(=O)[C@@H](N)Cc2ccccc2)C(=O)NCC(=O)N[C@@H](Cc2ccccc2)C(=O)N1 |  |  | IC50 (Mu-type opioid receptor [1]): 42 nM |
| CC1NC(=O)[C@H](Cc2ccc(O)cc2)NC(=O)[C@H](NC(=O)[C@@H](N)Cc2ccccc2)CCCCNC1=O (single isomer, unassigned) | 367 nM | 30.4 nM |  |
| CC1NC(=O)[C@H](Cc2ccc(O)cc2)NC(=O)[C@H](NC(=O)[C@H](N)Cc2ccccc2)CCCCNC1=O (single isomer, unassigned) | 9330 nM | 1830 nM |  |
| CC1NC(=O)[C@H](Cc2ccccc2)NC(=O)[C@H](NC(=O)[C@@H](N)Cc2ccc(O)cc2)CCCCNC1=O (single isomer, unassigned) | 0.54 nM | 0.11 nM |  |
